Measurements from patent US20040053859A1, “Preventive or therapeutic agent for cancer containing cyanidin compound as active ingredient” (priority 2000, published 2004).

Key:
large intestine cancer = test: carcinostatic effect against PhIP-promoted, DMH-initiated large intestine cancer in rats (macroscopic pathologic examination); type: in vivo, F344/DuCrj male rats; settings: DMH 20 mg/kg s.c. once a week for 4 weeks, then feed for 32 weeks, group 2 PhIP 200 ppm only, group 3 PhIP 200 ppm + PCC 5%
Source text: Using DMH (1,2-dimethylhydradinedihydrochloride, manufactured by Tokyo Kasei Kogyo Co., Ltd., Lot. FIH01-UR) as an initiator of large intestine cancer, the carcinostatic effect of a purple corn pigment (manufactured. by San-Ei gen F.F.I., Inc. Lot. 990519, containing 10.8% of the compound of the formula (III) and 6.5% of the compound of the formula (IV), hereinafter referred to as PCC) was examined against the carcinogenesis promoting effect of PhIP (2-amino-1-methyl-6-phenylimidazo [4,5-b] pyridine (Toronto Research Chemical Inc., Lot. 5-YCX-55-2).
(§1) F344/DuCrj male rats (Charles River Japan Inc.) were used as test animals. The rats were subjected to a subcutaneous administration of DMH of 20 mg/kg once a week, for 4 weeks. They were divided into a group 1 fed with a basic feed (labo MR stock, manufactured by Nihon Nosan Kogyo KK), a group 2 fed with PhIP (200 ppm) only, and a group 3 fed with a mixture of PhIP (200 ppm) and PCC (5%). The rats (20 per group) were allowed to take the feed freely for 32 weeks.
The rats alive at the end of the experiment were fasted and then bled for euthanasia under deep anesthesia. They were dissected together with the dead rat of the group 2 to macroscopically examine tumorigenesis in various organs in the thoracic cavity and the abdominal cavity.
In every rat, tumorigenesis was not observed in other organs than the large intestine (cecum, colon, rectum). The tumor generated in the large intestine was recognized as cancer by the macroscopic pathologic examination.

[1] = survival, clinical manifestation, weight and water intake of rats during feeding of test substances; type: in vivo, F344/DuCrj male rats
Procedure: as §1
With an electronic balance (LC2200, manufactured by Sartorius), the weight of each rat was measured once a week until 14th week after initiation of the experiment, and thereafter measured once every two weeks. The feed intake amount of each rat was also measured once a week until 14th week, and thereafter measured once every other week in the same manner as the weight measurement, except that the feed intake amount for two days was measured.
With an electronic balance (LC2200, manufactured by Sartorius), an intake amount of water for two days was measured once a week until 14th week, and thereafter measured once every other week.

## Cn1c(N)nc2ncc(-c3ccccc3)cc21 [PhIP, 2-amino-1-methyl-6-phenylimidazo[4,5-b]pyridine]
Large intestine cancer; 20 rats per group
  Number of rats having tumor: 17
  Numbers of tumors: 48
Large intestine cancer
  Number of tumors/number of rats having tumor: 2.82
[1]; 5th and 6th weeks, group 2 PhIP 200 ppm, group 3 PhIP 200 ppm + PCC 5%, group 1 about 20
  water intake amount: about 19 g/animal/day
[1]; 32 weeks feeding after DMH, 20 rats per group
  survival until the end of the experiment: one in the group 2 died during the experiment
[1]; group 2 PhIP 200 ppm, group 3 PhIP 200 ppm + PCC 5%, group 1 basic feed about 360 g
  weight of the rats reached during administration of test substances (from about 230 g): ~315 g
